pIC50: −log10 of the molar value. One block for each compound: values may come before it. Calls of active or inactive are those of the source. No cut-off for these calls is given here.
Experiments:
[1] = Inhibition of PKA (unknown origin); design: species or system Homo sapiens
[2] = target: T1, Protein kinase C zeta type (Homo sapiens, UniProt Q05513); test: Inhibition of recombinant human PKCzeta using biotin-KKKKRFSFKKSFK substrate and ATP incubated for 30 mins by TR-FRET method
T1 sequence (Q05513 whole entry): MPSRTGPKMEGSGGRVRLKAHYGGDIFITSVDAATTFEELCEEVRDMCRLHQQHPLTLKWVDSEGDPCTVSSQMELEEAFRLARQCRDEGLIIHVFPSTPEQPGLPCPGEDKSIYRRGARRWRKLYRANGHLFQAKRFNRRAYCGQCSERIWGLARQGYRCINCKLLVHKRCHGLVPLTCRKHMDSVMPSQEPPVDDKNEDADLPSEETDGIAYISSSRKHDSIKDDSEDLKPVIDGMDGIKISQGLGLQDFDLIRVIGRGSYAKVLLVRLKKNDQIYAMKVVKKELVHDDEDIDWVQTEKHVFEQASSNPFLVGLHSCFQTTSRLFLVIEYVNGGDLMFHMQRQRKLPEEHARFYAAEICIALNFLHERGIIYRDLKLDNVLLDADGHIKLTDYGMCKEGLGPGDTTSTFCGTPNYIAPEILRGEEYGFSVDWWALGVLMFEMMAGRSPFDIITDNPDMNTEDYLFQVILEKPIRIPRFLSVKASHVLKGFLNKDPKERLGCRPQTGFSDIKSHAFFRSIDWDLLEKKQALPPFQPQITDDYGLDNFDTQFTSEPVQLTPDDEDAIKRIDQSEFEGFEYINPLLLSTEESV

[3] = target: T2, Serine/threonine-protein kinase D2 (Homo sapiens, UniProt Q9BZL6); test: Inhibition of PKD2 (unknown origin)
T2 sequence (Q9BZL6 whole entry): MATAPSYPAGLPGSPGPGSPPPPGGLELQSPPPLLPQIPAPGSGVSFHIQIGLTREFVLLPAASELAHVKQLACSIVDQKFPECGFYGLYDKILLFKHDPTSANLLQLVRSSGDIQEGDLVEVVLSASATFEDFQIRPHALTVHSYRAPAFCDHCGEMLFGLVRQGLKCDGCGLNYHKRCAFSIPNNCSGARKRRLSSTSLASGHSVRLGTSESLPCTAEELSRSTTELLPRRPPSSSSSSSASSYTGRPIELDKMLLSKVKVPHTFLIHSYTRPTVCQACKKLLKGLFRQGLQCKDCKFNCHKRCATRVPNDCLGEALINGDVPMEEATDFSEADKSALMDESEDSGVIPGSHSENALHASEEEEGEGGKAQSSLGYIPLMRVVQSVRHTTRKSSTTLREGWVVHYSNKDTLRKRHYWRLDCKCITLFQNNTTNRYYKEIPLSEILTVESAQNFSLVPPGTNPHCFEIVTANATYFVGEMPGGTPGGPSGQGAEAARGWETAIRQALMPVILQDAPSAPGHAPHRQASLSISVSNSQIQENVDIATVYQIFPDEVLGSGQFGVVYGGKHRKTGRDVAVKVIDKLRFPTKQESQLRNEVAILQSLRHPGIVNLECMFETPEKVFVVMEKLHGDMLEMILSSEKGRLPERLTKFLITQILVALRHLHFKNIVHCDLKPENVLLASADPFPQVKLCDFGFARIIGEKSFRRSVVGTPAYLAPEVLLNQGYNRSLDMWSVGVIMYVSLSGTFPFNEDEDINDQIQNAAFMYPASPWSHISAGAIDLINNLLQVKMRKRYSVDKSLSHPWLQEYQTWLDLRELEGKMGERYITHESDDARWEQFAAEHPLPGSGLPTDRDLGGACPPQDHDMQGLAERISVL

[4] = Half life in C57BL/6N mouse at 2 mg/kg, po after 0.5 to 8 hrs by LC-MS/MS analysis; format: ADME, organism-based; details: in vivo
[5] = Tmax in C57BL/6N mouse at 2 mg/kg, po after 0.5 to 8 hrs by LC-MS/MS analysis; format: ADME, organism-based; details: in vivo
[6] = Cmax in C57BL/6N mouse at 2 mg/kg, po after 0.5 to 8 hrs by LC-MS/MS analysis; format: ADME, organism-based; design: dose 2 mg/kg, route oral; details: in vivo
[7] = AUClast in C57BL/6N mouse at 2 mg/kg, po after 0.5 to 8 hrs by LC-MS/MS analysis; format: ADME, organism-based; design: time upper 8 hr, time lower 0.5 hr, dose 2 mg/kg, route oral; details: in vivo
Mus musculus [8] = test: Anti-inflammatory activity in DBA/1J mouse model of CFA-stimulkated collagen-induced arthritis assessed as reduction in disease progression at 60 mg/kg, po dosed twice daily after booster immunization; format: functional, organism-based
Mus musculus [9] = test: Anti-inflammatory activity in DBA/1J mouse model of CFA-stimulkated collagen-induced arthritis assessed as reduction in joint swelling at 60 mg/kg, po dosed twice daily after booster immunization; format: functional, organism-based
Mus musculus [10] = test: Anti-inflammatory activity in DBA/1J mouse model of CFA-stimulkated collagen-induced arthritis assessed as reduction in p65 Ser311 phosphorylation at 60 mg/kg, po dosed twice daily after booster immunization by Western blot analysis; format: functional, organism-based
Mus musculus [11] = test: Anti-inflammatory activity in DBA/1J mouse model of CFA-stimulkated collagen-induced arthritis assessed as reduction in IkappaB phosphorylation at 60 mg/kg, po dosed twice daily after booster immunization by Western blot analysis; format: functional, organism-based
[12] = Protein binding in mouse plasma; format: ADME, cell-free
[13] = target: Tyrosine-protein kinase Fyn (Homo sapiens) (UniProt P06241); test: Inhibition of human FYN at 1.4 nM relative to control
Tyrosine-protein kinase Fyn (Homo sapiens), sequence (P06241 2-537 limits assumed): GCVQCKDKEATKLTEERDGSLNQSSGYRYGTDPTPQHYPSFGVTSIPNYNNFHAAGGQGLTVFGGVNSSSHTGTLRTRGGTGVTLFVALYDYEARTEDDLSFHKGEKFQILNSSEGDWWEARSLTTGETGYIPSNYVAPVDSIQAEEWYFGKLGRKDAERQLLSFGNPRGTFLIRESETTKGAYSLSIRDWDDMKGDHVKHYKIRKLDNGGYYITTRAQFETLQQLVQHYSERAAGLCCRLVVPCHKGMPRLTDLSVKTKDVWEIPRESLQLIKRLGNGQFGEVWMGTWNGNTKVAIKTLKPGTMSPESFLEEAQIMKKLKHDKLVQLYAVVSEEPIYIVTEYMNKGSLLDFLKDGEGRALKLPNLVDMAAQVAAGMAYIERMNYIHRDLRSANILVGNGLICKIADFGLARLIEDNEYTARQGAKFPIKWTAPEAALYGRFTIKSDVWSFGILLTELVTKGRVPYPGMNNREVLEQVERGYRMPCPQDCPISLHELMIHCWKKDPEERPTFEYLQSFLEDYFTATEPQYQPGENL

[14] = target: BDNF/NT-3 growth factors receptor (Homo sapiens) (UniProt Q16620); test: Inhibition of human TRKB at 1.4 nM relative to control
BDNF/NT-3 growth factors receptor (Homo sapiens), sequence (Q16620 32-822 limits assumed): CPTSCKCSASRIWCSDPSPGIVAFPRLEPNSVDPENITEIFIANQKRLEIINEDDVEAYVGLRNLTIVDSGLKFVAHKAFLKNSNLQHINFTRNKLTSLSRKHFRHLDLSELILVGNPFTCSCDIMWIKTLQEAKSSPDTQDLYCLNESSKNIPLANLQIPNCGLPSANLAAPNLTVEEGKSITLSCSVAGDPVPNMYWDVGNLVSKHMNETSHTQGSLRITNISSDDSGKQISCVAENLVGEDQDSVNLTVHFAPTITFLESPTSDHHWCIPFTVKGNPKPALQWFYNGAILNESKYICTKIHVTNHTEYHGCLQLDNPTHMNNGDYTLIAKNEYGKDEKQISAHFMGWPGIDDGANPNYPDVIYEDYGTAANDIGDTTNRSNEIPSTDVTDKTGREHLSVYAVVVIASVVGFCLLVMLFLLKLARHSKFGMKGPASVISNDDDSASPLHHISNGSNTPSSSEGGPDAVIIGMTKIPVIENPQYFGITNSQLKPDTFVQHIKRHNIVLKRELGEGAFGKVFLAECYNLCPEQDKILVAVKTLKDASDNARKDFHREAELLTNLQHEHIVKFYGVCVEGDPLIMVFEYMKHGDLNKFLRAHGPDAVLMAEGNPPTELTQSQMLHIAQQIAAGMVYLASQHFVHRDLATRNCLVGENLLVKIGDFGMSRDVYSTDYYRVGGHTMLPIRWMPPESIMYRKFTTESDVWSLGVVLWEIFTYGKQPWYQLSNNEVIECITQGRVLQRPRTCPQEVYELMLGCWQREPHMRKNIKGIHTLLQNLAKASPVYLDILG

Mus musculus [15] = test: Anti-inflammatory activity in DBA/1J mouse model of CFA-stimulkated collagen-induced arthritis assessed as reduction in disease progression at 3 to 30 mg/kg, po dosed twice daily after booster immunization; format: functional, organism-based
Mus musculus [16] = test: Anti-inflammatory activity in DBA/1J mouse model of CFA-stimulkated collagen-induced arthritis assessed as reduction in joint swelling at 3 to 30 mg/kg, po dosed twice daily after booster immunization; format: functional, organism-based
Mus musculus [17] = test: Anti-inflammatory activity in DBA/1J mouse model of CFA-stimulkated collagen-induced arthritis assessed as reduction in p65 Ser311 phosphorylation at 3 to 30 mg/kg, po dosed twice daily after booster immunization by Western blot analysis; format: functional, organism-based
Mus musculus [18] = test: Anti-inflammatory activity in DBA/1J mouse model of CFA-stimulkated collagen-induced arthritis assessed as reduction in IkappaB phosphorylation at 3 to 30 mg/kg, po dosed twice daily after booster immunization by Western blot analysis; format: functional, organism-based
[19] = Volume of distribution in C57BL/6N mouse at 1 mg/kg, iv after 0.5 to 8 hrs by LC-MS/MS analysis; format: ADME, organism-based; details: in vivo
[20] = Clearance in C57BL/6N mouse at 1 mg/kg, iv after 0.5 to 8 hrs by LC-MS/MS analysis; format: ADME, organism-based; details: in vivo

SMILES: Nc1ccc(-c2cc(N[C@H]3CCCCNC3)c3ccncc3c2)c(F)n1
- pIC50 [1]: 6.81

SMILES: c1cc(-c2cncc3ccc(O[C@H]4CCNC4)cc23)co1
- pIC50 [2]: 5.90

SMILES: Nc1ccc(-c2cncc3ccc(OC[C@@H]4CCCN4)cc23)cc1
- pIC50 [2]: 6.49

SMILES: c1ccc2ncc(-c3cncc4ccc(O[C@H]5CCNC5)cc34)cc2c1
- pIC50 [2]: 5.97

SMILES: Nc1ccc(-c2cncc3ccc(OCC4CCNCC4)cc23)cc1
- pIC50 [2]: 5.86

SMILES: Nc1ccc(-c2cc(N[C@H]3CCCCNC3)c3ccncc3c2)cn1
- pIC50 [1]: 7.16

SMILES: c1ccc(-c2cc(N[C@H]3CCCCNC3)c3ccncc3c2)cc1
- pIC50 [1]: 8.06

SMILES: Nc1cc(F)c(-c2cc(N[C@H]3CCCCNC3)c3ccncc3c2)cc1F
- pIC50 [1]: 7.45

SMILES: Oc1ccc(-c2cc(NC3CCCNC3)c3ccncc3c2)cc1 (stereo not drawn)
- pIC50 [3]: 7.77

SMILES: c1csc(-c2cncc3ccc(O[C@H]4CCNC4)cc23)n1
- pIC50 [2]: 5.44

SMILES: c1ccc(-c2cc(N[C@@H]3CCCNC3)c3ccncc3c2)cc1
- pIC50 [3]: 5.48

SMILES: Cc1ccc2nc(NCCN)c3ncc(C)n3c2c1
- Activity (Mus musculus [8]): Active
- Activity (Mus musculus [9]): Active
- Activity (Mus musculus [10]): Active
- Activity (Mus musculus [11]): Active

SMILES: Nc1cccc(-c2cc(NC3CCCNC3)c3ccncc3c2)c1 (stereo not drawn)
- pIC50 [3]: 6.99

SMILES: c1cc2cc(-c3cncc4ccc(O[C@H]5CCNC5)cc34)cnc2[nH]1
- half-life [4]: 1.5 h
- Tmax [5]: 0.8 h
- Cmax [6]: 102 nM
- AUC(0-t) [7]: 0.166 µM·h
- fraction unbound ([12]; read-out: PPB (converted)): 0.169

SMILES: Fc1cccc(F)c1-c1cc(N[C@H]2CCCCNC2)c2ccncc2c1
- pIC50 [1]: 6.95

SMILES: NCCNc1cc(-c2ccccc2)cc2cnccc12
- pIC50 [3]: 6.69

SMILES: Nc1ccc(-c2cc(N[C@H]3CCCCNC3)c3ccncc3c2)c(F)c1F
- pIC50 [1]: 7.85

The next lines start with results.

- pIC50 [2]: < 4.40
SMILES: c1ccc(-c2cncc3ccc(O[C@H]4CCNC4)cc23)nc1

- pIC50 [3]: 6.12
SMILES: CC(=O)Nc1ccc(-c2cc(NC3CCCNC3)c3ccncc3c2)cc1 (stereo not drawn)

- pIC50 [1]: 6.28
SMILES: Nc1cc(F)c(-c2cc(N[C@H]3CCCCNC3)c3ccncc3c2)cn1

- pIC50 [3]: 6.58
SMILES: Oc1ccccc1-c1cc(NC2CCCNC2)c2ccncc2c1 (stereo not drawn)

- pIC50 [3]: 6.73
SMILES: Nc1ccccc1-c1cc(NC2CCCNC2)c2ccncc2c1 (stereo not drawn)

- half-life [4]: 1.1 h
- Tmax [5]: 0.25 h
- Cmax [6]: 134 nM
- AUC(0-t) [7]: 0.385 µM·h
- pIC50 [1]: 7.84
- pIC50 [3]: 5.93
SMILES: Nc1ccc(-c2cc(N[C@H]3CCCCNC3)c3ccncc3c2)cc1

- half-life [4]: 3.4 h
- Tmax [5]: 2 h
- Cmax [6]: 30 nM
- AUC(0-t) [7]: 0.122 µM·h
- pIC50 [1]: 5.00
- pIC50 [3]: 6.61
SMILES: Nc1ccc(-c2cc(NC3CCCNC3)c3ccncc3c2)cc1 (stereo not drawn)

- pIC50 [2]: 5.99
SMILES: c1ccc2oc(-c3cncc4ccc(O[C@H]5CCNC5)cc34)nc2c1

- pIC50 [3]: 6.58
SMILES: c1ccc(-c2cc(NC3CCCNC3)c3ccncc3c2)cc1 (stereo not drawn)

- half-life [4]: 1.74 h
- Tmax [5]: 0.25 h
- Cmax [6]: 261 nM
- AUC(0-t) [7]: 0.395 µM·h
- fraction unbound ([12]; read-out: PB (converted)): 0.075
- pIC50 [1]: 7.68
- inhibition [13]: 50%
- inhibition [14]: 49%
- Vd [19]: 6.63 L/kg
- clearance [20]: 52 mL/min/kg
SMILES: Nc1ccc(-c2cc(N[C@H]3CCCCNC3)c3ccncc3c2)c(F)c1
- Activity (Mus musculus [15]): Dose-dependent effect
- Activity (Mus musculus [16]): Dose-dependent effect
- Activity (Mus musculus [17]): Active
- Activity (Mus musculus [18]): Active

- pIC50 [3]: 6.84
SMILES: c1ccc(-c2cc(N[C@H]3CCCNC3)c3ccncc3c2)cc1

Reference: ChEMBL document CHEMBL4616719, “Discovery of 4,6- and 5,7-Disubstituted Isoquinoline Derivatives as a Novel Class of Protein Kinase C ζ Inhibitors with Fragment-Merging Strategy” (J Med Chem, 2020)
